Measurements: the Deep4Chem optical property database
Values belong to the compound of their own block, whether it stands above or below them.

Assay: solvent given as SMILES

SMILES: Cc1ccc2c(c1)B(c1c(C(C)C)cc(C(C)C)cc1C(C)C)c1cc(C)cc3c1N2c1ccc(C)cc1B3c1c(C(C)C)cc(C(C)C)cc1C(C)C
fluorescence lifetime (in Cc1ccccc1-c1cccc(Oc2cc3c4c(c2)Oc2cc(-c5ccccc5C)ccc2B4c2ccc(-c4ccccc4C)cc2O3)c1): 6.01 ns

SMILES: Cn1c2ccc(S(=O)(=O)Cl)cc2c(=O)c2cc(S(=O)(=O)Cl)ccc21
fluorescence lifetime (in CS(C)=O): 10.6 ns

SMILES: CN(C)c1ccc(-c2nc3c(c4c2-c2ccccc2CC4)-c2ccccc2CC3)cc1
fluorescence lifetime (in C1CCOC1): 0.91 ns
fluorescence lifetime (in CC#N): 1.19 ns
fluorescence lifetime (in CCOC(C)=O): 0.75 ns
fluorescence lifetime (in CS(C)=O): 2.13 ns
fluorescence lifetime (in Cc1ccccc1): 0.27 ns
fluorescence lifetime (in ClCCl): 0.8 ns

SMILES: Cc1ccccc1-c1nc(-c2ccccc2C)nc(-c2ccc(N3c4ccccc4C4(c5ccccc5-c5ccccc54)c4ccccc43)cc2C)n1
fluorescence lifetime (in O=P(c1ccccc1)(c1ccccc1)c1ccccc1Oc1ccccc1P(=O)(c1ccccc1)c1ccccc1): 24 ns

SMILES: COc1ccc(C2=CC(c3ccc4cc(N(C)C)ccc4c3)=[O+][B-](F)(F)O2)cc1
fluorescence lifetime (in C1CCOC1): 2.68 ns
fluorescence lifetime (in CC#N): 0.42 ns
fluorescence lifetime (in CC(C)=O): 0.72 ns
fluorescence lifetime (in CS(C)=O): 0.54 ns
fluorescence lifetime (in Cc1ccccc1): 2.96 ns
fluorescence lifetime (in ClC(Cl)Cl): 3.54 ns
fluorescence lifetime (in ClCCl): 2.71 ns

SMILES: COC(=O)c1ccc(C#Cc2ccc(N(C)C)cc2)cc1
fluorescence lifetime (in C1CCCCC1): 1.35 ns
fluorescence lifetime (in C1CCOC1): 2.43 ns
fluorescence lifetime (in C1COCCO1): 2.38 ns
fluorescence lifetime (in CC1CCCO1): 2.68 ns
fluorescence lifetime (in CC#N): 1.48 ns
fluorescence lifetime (in CC(C)=O): 1.51 ns
fluorescence lifetime (in CC(C)CC(C)(C)C): 0.73 ns
fluorescence lifetime (in CC(C)O): 1.32 ns
fluorescence lifetime (in CCCCCCCCCCCCCCCC): 0.75 ns
fluorescence lifetime (in CCCCCCCCCCCCCCCCCl): 0.92 ns
fluorescence lifetime (in CCOC(C)=O): 2.47 ns
fluorescence lifetime (in CCOCC): 0.959 ns
fluorescence lifetime (in CN(C)C=O): 1.7 ns
fluorescence lifetime (in CS(C)=O): 1.92 ns
fluorescence lifetime (in Cc1ccccc1): 0.9 ns

SMILES: CC1=CC(c2ccc3ccccc3c2)=[O+][B-]2(OC(=O)C(=O)O2)O1
fluorescence lifetime (in CC#N): 18.8 ns
fluorescence lifetime (in ClC(Cl)(Cl)Cl): 5.1 ns

SMILES: CCN(CC)c1ccc2nc3c4ccccc4c(=O)cc-3oc2c1
fluorescence lifetime (in C1CCCCC1): 2.76 ns
fluorescence lifetime (in C1COCCO1): 4.5 ns
fluorescence lifetime (in CC1COC(=O)O1): 4.4 ns
fluorescence lifetime (in CC#N): 4.7 ns
fluorescence lifetime (in CC(C)=O): 4.66 ns
fluorescence lifetime (in CC(C)O): 4.1 ns
fluorescence lifetime (in CCCC#N): 4.54 ns
fluorescence lifetime (in CCCCCCCCCCO): 4.19 ns
fluorescence lifetime (in CCCCCO): 3.95 ns
fluorescence lifetime (in CCCCO): 3.91 ns
fluorescence lifetime (in CCCCOCCCC): 4.15 ns
fluorescence lifetime (in CCCO): 3.8 ns
fluorescence lifetime (in CCO): 3.65 ns
fluorescence lifetime (in CCOC(C)=O): 4.53 ns
fluorescence lifetime (in CCOCC): 4.45 ns
fluorescence lifetime (in CN(C)C=O): 4.35 ns
fluorescence lifetime (in CO): 2.8 ns
fluorescence lifetime (in ClC(Cl)(Cl)Cl): 4.1 ns
fluorescence lifetime (in ClCCl): 4.48 ns
fluorescence lifetime (in OC(C(F)(F)F)C(F)(F)F): 0.94 ns
fluorescence lifetime (in OCC(F)(F)F): 1.76 ns
fluorescence lifetime (in OCC(O)CO): 1.95 ns
fluorescence lifetime (in OCCO): 2.5 ns
fluorescence lifetime (in [2H]OC): 4.2 ns
fluorescence lifetime (in [2H]OCC): 4.56 ns

The remaining lines, values ahead:

fluorescence lifetime (in C1CCOC1): 2.3 ns
fluorescence lifetime (in CC#N): 2.7 ns
fluorescence lifetime (in CCO): 3.65 ns
fluorescence lifetime (in CS(C)=O): 4.03 ns
SMILES: CCOC(=O)c1ccccc1-c1c2ccc(=O)cc-2oc2cc(OC(=O)[C@H](CO[Si](C)(C)C(C)(C)C)NC(=O)OC(C)(C)C)ccc12

fluorescence lifetime (in ClCCl): 6.2 ns
SMILES: CC1=C(c2ccccc2)C(C)=[N+]2C1=C(c1c(-c3ccccn3)nc3ccccn13)c1c(C)cc(C)n1[B-]2(F)F

fluorescence lifetime (in ClCCl): 1.23 ns
SMILES: CCCCCCCCOc1cc(/C=C/c2cc[n+](Cc3ccc(C)cc3)cc2)c(OCCCCCCCC)cc1/C=C/c1cc[n+](Cc2ccc(C)cc2)cc1

fluorescence lifetime (in ClCCl): 1.14 ns
SMILES: CCCCC(CC)COc1ccc2nc(-c3ccc(-c4ccccc4)s3)sc2c1 (configuration not stated)

fluorescence lifetime (in CC#N): 20 ns
SMILES: COC(=O)CC1(C(=O)O)Oc2c(c(C(C)=O)c3c(c2C(C)=O)OCO3)O1

fluorescence lifetime (in CCO): 0.03 ns
SMILES: CC1(C)CC(/C=C/c2ccc(-n3ccnc3)cc2)=CC(=C(C#N)C#N)C1

fluorescence lifetime (in ClC(Cl)Cl): 1.35 ns
SMILES: CCCCc1cc(-c2cccc(COC)c2)oc1-c1cccc(-c2cc(CCCC)c(-c3cccc(-c4oc(-c5cccc(-c6oc(-c7cccc(COC)c7)cc6CCCC)c5)cc4CCCC)c3)o2)c1

fluorescence lifetime (in ClC(Cl)Cl): 0.436 ns
SMILES: F[B-]1(F)OC(c2ccc(Br)cc2)=Cc2c3ccccc3c3ccccc3[n+]21

fluorescence lifetime (in CCOC(C)=O): 8.29 ns
SMILES: CC(C)(C)OC(=O)n1ccc2c3ccc4cccc5ccc(cc21)c3c54

fluorescence lifetime (in ClC(Cl)Cl): 3.69 ns
SMILES: CCc1cc(CC)cc(-n2c3ccccc3c3cc4c(cc32)c2ccccc2n4-c2cc(CC)cc(CC)c2)c1

fluorescence lifetime (in CC#N): 5.4 ns
SMILES: CC(=O)OC[C@H]1O[C@@H](OCC#Cc2ccc(C3=C4C(C)=CC(/C=C/c5ccc([N+](C)(C)C)cc5)=[N+]4[B-](F)(F)n4c(/C=C/c5ccc([N+](C)(C)C)cc5)cc(C)c43)cc2)[C@H](OC(C)=O)C(OC(C)=O)[C@@H]1OC(C)=O (some centres not stated)
